Reference: ChEMBL document CHEMBL4190385, “Benzofuran-pyran hybrids: A new class of potential bone anabolic agents” (Bioorg Med Chem Lett, 2018)
Active and inactive are the calls of the source. No cut-off for these calls is given here.

Key:
[1] = system: Calvarial osteoblast; test: Stimulation of mineralization in rat calvarial osteoblasts assessed as increase in calcium nodules at 100 pM by Alizarin red S staining based photography; format: functional, cell-based
[2] = system: Calvarial osteoblast; test: Stimulation of osteoblast differentiation in rat calvarial osteoblasts assessed as increase in ALP activity at 1 pM to 100 uM using p-nitrophenylphosphate substrate incubated for 48 hrs by colorimetry; format: functional, cell-based
[3] = system: Calvarial osteoblast; test: Cytotoxicity in rat calvarial osteoblasts assessed as reduction in cell viability at 1 pM to 1 uM incubated for 48 hrs by MTT assay; format: cell-based
[4] = system: Calvarial osteoblast; test: Stimulation of osteoblast differentiation in rat calvarial osteoblasts assessed as increase in ALP activity at 1 uM using p-nitrophenylphosphate substrate incubated for 48 hrs by colorimetry; format: functional, cell-based
[5] = system: Calvarial osteoblast; test: Stimulation of mineralization in rat calvarial osteoblasts assessed as increase in calcium nodules at 10 nM by Alizarin red S staining based photography; format: functional, cell-based
[6] = system: Calvarial osteoblast; test: Stimulation of mineralization in rat calvarial osteoblasts assessed as increase in calcium nodules at 1 uM by Alizarin red S staining based photography; format: functional, cell-based
[7] = system: Calvarial osteoblast; test: Stimulation of mineralization in rat calvarial osteoblasts assessed as increase in calcium nodules at 10 pM by Alizarin red S staining based photography; format: functional, cell-based
[8] = system: Calvarial osteoblast; test: Increase in COL1 mRNA expression in rat calvarial osteoblasts at 10 nM incubated for 72 hrs by qPCR method; format: functional
[9] = Increase in Osx mRNA expression in Sprague-Dawley rat bone marrow stromal cells at 10 nM incubated for 7 days hrs by qPCR method; format: functional
[10] = system: Calvarial osteoblast; test: Increase in Runx-2 mRNA expression in rat calvarial osteoblasts at 10 nM incubated for 72 hrs by qPCR method; format: functional
[11] = system: Calvarial osteoblast; test: Increase in BMP2 mRNA expression in rat calvarial osteoblasts at 10 nM incubated for 72 hrs by qPCR method; format: functional
[12] = species: Rattus norvegicus; test: Stimulation of mineralization in Sprague-Dawley rat bone marrow stromal cells assessed as increase in calcium nodules at 1 uM incubated for 18 days hrs by Alizarin red S staining based photography; format: functional
[13] = system: Calvarial osteoblast; test: Stimulation of osteoblast differentiation in rat calvarial osteoblasts assessed as increase in ALP activity at 100 nM using p-nitrophenylphosphate substrate incubated for 48 hrs by colorimetry; format: functional, cell-based
[14] = Increase in BMP2 mRNA expression in Sprague-Dawley rat bone marrow stromal cells at 10 nM incubated for 7 days hrs by qPCR method; format: functional
[15] = Increase in BMP2 mRNA expression in Sprague-Dawley rat bone marrow stromal cells at 1 uM incubated for 7 days hrs by qPCR method; format: functional
[16] = species: Rattus norvegicus; test: Stimulation of mineralization in Sprague-Dawley rat bone marrow stromal cells assessed as increase in calcium nodules at 10 nM incubated for 18 days hrs by Alizarin red S staining based photography; format: functional
[17] = Increase in Runx-2 mRNA expression in Sprague-Dawley rat bone marrow stromal cells at 10 nM incubated for 7 days hrs by qPCR method; format: functional

Row | SMILES | Activity [1] | Activity [2] | Activity [3] | Activity [5] | other results
1 | COc1ccc(C(=O)c2cc3cc(C4C(C#N)=C(N)OC5=C4C(=O)CC(C)(C)C5)cc(C(C)(C)C)c3o2)cc1 (centres undefined) | inactive | Active | Non-Toxic | – | –
2 | Cc1ccc(C(=O)c2cc3cc(C4C(C#N)=C(N)OC5=C4C(=O)CC(C)(C)C5)cc(C)c3o2)cc1 (centres undefined) | – | Active | Non-Toxic | inactive | Activity [4]: Active
3 | Cc1ccc(C(=O)c2cc3cc(C4C(C#N)=C(N)OC5=C4C(=O)CC(C)(C)C5)cc(C(C)(C)C)c3o2)cc1 (centres undefined) | – | Active | Non-Toxic | – | Activity [6]: Active
4 | CCc1cc(C2C(C#N)=C(N)OC3=C2C(=O)CC(C)(C)C3)cc2cc(C(=O)c3ccc(OC)cc3)oc12 (centres undefined) | inactive | Active | Non-Toxic | – | –
5 | CC1(C)CC(=O)C2=C(C1)OC(N)=C(C#N)C2c1cc(C(C)(C)C)c2oc(C(=O)c3ccc(Cl)cc3)cc2c1 (centres undefined) | – | Active | Non-Toxic | – | Activity [7]: inactive
6 | COc1ccc(C(=O)c2cc3cc(C4C(C#N)=C(N)OC5=C4C(=O)CC(C)(C)C5)cc(C)c3o2)cc1 (centres undefined) | – | Active | Non-Toxic | Active | fold change (FC) [8]: 1.8; fold change (FC) [9]: 3; fold change (FC) [10]: 2.4; fold change (FC) [11]: 2.2; Activity [12]: Active; Activity [13]: Active; fold change (FC) [14]: 2.8; fold change (FC) [15]: 1.8; Activity [16]: Active; fold change (FC) [17]: 2
